Target: β1-adrenergic receptor (Homo sapiens (Human), UniProt P08588)
Assay: cAMP Gs dynamic HTRF assay, β1 expressing CHO cells
Format: cell-based
Settings: B1-AR; CHO-K1 (HitHunter)
Outline: (§1)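 Intracellular cAMP quantified by Eu-donor/d2-acceptor HTRF after 30 min compound exposure at 37° C in stimulation buffer with IBMX. Concentrations ran 10 μM top, 5-fold steps, 10 points. Cell lines: 1321N1 astrocytoma and CHO expressing β1 or β2; EC50 via four-parameter fit, relative efficacy against isoproterenol.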

Chain of β1-adrenergic receptor (P08588 whole entry, species assumed): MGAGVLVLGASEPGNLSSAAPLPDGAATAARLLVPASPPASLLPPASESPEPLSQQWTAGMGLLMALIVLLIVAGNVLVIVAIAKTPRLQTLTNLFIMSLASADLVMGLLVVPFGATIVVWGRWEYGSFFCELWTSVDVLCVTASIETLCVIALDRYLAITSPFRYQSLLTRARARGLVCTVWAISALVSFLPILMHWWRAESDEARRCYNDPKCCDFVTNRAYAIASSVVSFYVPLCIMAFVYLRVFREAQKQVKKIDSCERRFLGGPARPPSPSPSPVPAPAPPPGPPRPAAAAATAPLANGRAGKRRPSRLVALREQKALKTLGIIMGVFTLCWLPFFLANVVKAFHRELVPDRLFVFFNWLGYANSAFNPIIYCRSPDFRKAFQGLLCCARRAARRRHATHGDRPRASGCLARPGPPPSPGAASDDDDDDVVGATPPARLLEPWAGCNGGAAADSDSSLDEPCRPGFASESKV

For `CC(C)Oc1ncccc1[C@@H](O)CNC(C)(C)C` [Compound 03-57], the “Average pEC50 [Receptor subtype: B1-AR; Cell type: CHO-K1 (HitHunter)]” value was “C (C = <7-6)”.
With `CC(C)(C)NC[C@H](O)c1cccnc1C1CCCC1` [Compound 03-53] the “Average pEC50 [Receptor subtype: B1-AR; Cell type: CHO-K1 (HitHunter)]” value was “D (D < 6)”.
`CC(C)(C)NC[C@H](O)c1cccc(C2CCC2)n1` [Compound 03-161] was tested, and the “Average pEC50 [Receptor subtype: B1-AR; Cell type: CHO-K1 (HitHunter)]” value was “A (A > 8)”.
`CC(C)(C)NC[C@H](O)c1cccc(C(C)(F)F)n1` [Compound 03-169] was tested, and the “Average pEC50 [Receptor subtype: B1-AR; Cell type: CHO-K1 (HitHunter)]” value was “B (B = 8-7)”.
`O[C@@H](CNC1CCC1)c1cccc(C(F)(F)F)n1` [Compound 03-33] was tested, and the “Average pEC50 [Receptor subtype: B1-AR; Cell type: CHO-K1 (HitHunter)]” value was “A (A > 8)”.
In the case of `CC(C)(COc1ccccc1)NC[C@H](O)c1cccc(C(F)(F)F)n1` [Compound 03-184], the “Average pEC50 [Receptor subtype: B1-AR; Cell type: CHO-K1 (HitHunter)]” value is reported as “B (B = 8-7)”.

Same assay, conditions: B1-AR; CHO-K1 (HitHunter); read-out: Average pEC50 [Receptor subtype: B1-AR; Cell type: CHO-K1 (HitHunter)] (converted)

In the case of `CC(C)c1cccc([C@@H](O)CNC(C)(C)C)n1` [Compound 03-175], the EC50 is reported as 10 to 100 nM.

Same assay, conditions: B1-AR; CHO-K cells; read-out: Average EC50 [Receptor subtype: B1-AR; Cell type: CHO-K]

`CC(C)c1cccc([C@@H](O)CNC(C)(C)C)n1` [Compound 03-175] and `CC(C)(C)NC[C@H](O)c1cccc(C(C)(F)F)n1` [Compound 03-169] fall in the same range of EC50: 10 to 100 nM for the first, 10 to 100 nM for the second.

First: CC(C)Oc1ncccc1[C@@H](O)CNC(C)(C)C [Compound 03-57]
Second: CC(C)(C)NC[C@H](O)c1cccnc1C1CCCC1 [Compound 03-53]
The EC50 of the first is lower: 100 to 1000 nM for the first, greater than 1000 nM for the second. The first is the more potent here.

`CC(C)(C)NC[C@H](O)c1cccc(C2CCC2)n1` [Compound 03-161] and `O[C@@H](CNC1CCC1)c1cccc(C(F)(F)F)n1` [Compound 03-33] cannot be ordered by EC50: less than 10 nM for the first, less than 10 nM for the second.

With `CC(C)(COc1ccccc1)NC[C@H](O)c1cccc(C(F)(F)F)n1` [Compound 03-184] the EC50 was 10 to 100 nM.

Target: β2 adrenergic receptor (Homo sapiens (Human), UniProt P07550)
Assay: cAMP Gs dynamic HTRF assay, β2 expressing CHO cells
Format: cell-based
Settings: B2-AR; CHO-K1 (HitHunter); read-out: Average pEC50 [Receptor subtype: B2-AR; Cell type: CHO-K1 (HitHunter)] (converted)
Outline: as §1

Chain of β2 adrenergic receptor (P07550 whole entry, species assumed): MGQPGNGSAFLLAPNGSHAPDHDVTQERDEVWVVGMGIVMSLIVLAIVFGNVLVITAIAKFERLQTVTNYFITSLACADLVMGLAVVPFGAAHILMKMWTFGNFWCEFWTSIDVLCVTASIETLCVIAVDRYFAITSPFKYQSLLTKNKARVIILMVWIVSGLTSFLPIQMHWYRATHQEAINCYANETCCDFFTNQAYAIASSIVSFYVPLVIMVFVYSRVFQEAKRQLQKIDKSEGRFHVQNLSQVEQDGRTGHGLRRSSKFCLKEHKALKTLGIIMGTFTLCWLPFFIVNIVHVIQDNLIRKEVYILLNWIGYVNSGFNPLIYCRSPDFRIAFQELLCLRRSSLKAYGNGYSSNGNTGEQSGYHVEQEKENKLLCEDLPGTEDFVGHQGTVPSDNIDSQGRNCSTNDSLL

`CC(C)c1cccc([C@@H](O)CNC(C)(C)C)n1` [Compound 03-175] and `CC(C)(C)NC[C@H](O)c1cccc(C(C)(F)F)n1` [Compound 03-169] cannot be ordered by EC50: less than 10 nM for the first, less than 10 nM for the second.

`CC(C)Oc1ncccc1[C@@H](O)CNC(C)(C)C` [Compound 03-57] and `CC(C)(C)NC[C@H](O)c1cccnc1C1CCCC1` [Compound 03-53] fall in the same range of EC50: 10 to 100 nM for the first, 10 to 100 nM for the second.

`CC(C)(C)NC[C@H](O)c1cccc(C2CCC2)n1` [Compound 03-161] and `O[C@@H](CNC1CCC1)c1cccc(C(F)(F)F)n1` [Compound 03-33] cannot be ordered by EC50: less than 10 nM for the first, less than 10 nM for the second.

`CC(C)(COc1ccccc1)NC[C@H](O)c1cccc(C(F)(F)F)n1` [Compound 03-184] was tested, and the EC50 was 10 to 100 nM.

Same assay, conditions: B2-AR; CHO-K cells; read-out: Average EC50 [Receptor subtype: B2-AR; Cell type: CHO-K]

`CC(C)c1cccc([C@@H](O)CNC(C)(C)C)n1` [Compound 03-175] and `CC(C)(C)NC[C@H](O)c1cccc(C(C)(F)F)n1` [Compound 03-169] cannot be ordered by EC50: less than 10 nM for the first, less than 10 nM for the second.

`CC(C)Oc1ncccc1[C@@H](O)CNC(C)(C)C` [Compound 03-57] and `CC(C)(C)NC[C@H](O)c1cccnc1C1CCCC1` [Compound 03-53] fall in the same range of EC50: 10 to 100 nM for the first, 10 to 100 nM for the second.

`CC(C)(C)NC[C@H](O)c1cccc(C2CCC2)n1` [Compound 03-161] and `O[C@@H](CNC1CCC1)c1cccc(C(F)(F)F)n1` [Compound 03-33] cannot be ordered by EC50: less than 10 nM for the first, less than 10 nM for the second.

Work on `CC(C)(COc1ccccc1)NC[C@H](O)c1cccc(C(F)(F)F)n1` [Compound 03-184] yielded an EC50 of 10 to 100 nM.

Target: β2 adrenergic receptors in human astrocytoma cells (1321N1) (Homo sapiens (Human), UniProt P07550)
Assay: cAMP HTRF assay in human astrocytoma cells (1321N1)
Format: cell-based
Settings: Endogenous receptor; 1321N1 cells
Protocol: cAMP homogeneous time-resolved fluorescence (HTRF). Compound efficacy was determined using the cAMP Gs dynamic HTRF assay (Cisbio, catalog #62AM4PEC) largely following the manufacturer's instructions, also detailed below.
Compound preparation. […] Standard serial dilution curves were 10-point, 5-fold dilutions starting from a highest concentration of 10 μM. […] Assay plates were centrifuged at 500×g for 10 seconds. Compounds and IBMX were prepared at 2× final dose to compensate for addition of cells.
Cell preparation. 1× stimulation buffer, washing PBS (Dulbecco's phosphate-buffered saline, −Mg −Ca; Caisson Labs, catalog #PBL01), assay PBS (Dulbecco's phosphate-buffered saline, +Mg, +Ca; Caisson Labs, catalog #PBL02) and Versene (0.02% EDTA disodium salt solution in PBS without calcium or magnesium; Caisson Labs, catalog #EDL01) were pre-warmed to 37° C. Cells expressing beta-adrenergic receptor were washed in washing PBS to remove growth medium and then released from the surface by incubating with Versene for 5-10 minutes at 37° C. Cells were harvested using assay PBS, counted manually by hemocytometer or by an automated cell counter, pelleted by centrifugation (200×g, 5 minutes) and resuspended in 37° C. 1× stimulation buffer to a final density of 1.5×10^6 cells/mL. 5 μL of the suspended cell solution (7500 cell total) were added to all wells of the 384 well assay plate, the assay plate was covered with an Axygen® plate seal (Corning PCR-SP) and incubated in a humidified 37° C. environment supplemented with 5% CO2 for 30 minutes.
HTRF reagent addition, reading and data analysis. After 30 minutes of cell stimulation with test compound, the assay plates were centrifuged at 500×g for 10 seconds, and incubation was stopped with the addition of 5 μL cAMP-D2 acceptor, diluted 1:21 in detection and lysis buffer 2 (Cisbio 62CL2FDF) was added to all cells. Subsequently, 5 μL Anti-cAMP-Eu Donor, diluted 1:21 in detection and lysis buffer 2, was added to cells. Plates were sealed and reactions gently ‘vortexed’ at 900 rpm on a Heidolph Titramax 1000 for at least 30 minutes at room temperature. Plates were centrifuged again at 500×g for 10 seconds, and HTRF was measured using a Tecan Spark plate reader at 50 flashes per well. […] Potency estimates (EC50) were derived from the four-parameter nonlinear regression of the concentration-effect curve and an estimate of relative efficacy was determined by comparing the magnitude of the test compound HTRF signal window (min−max dose) with the signal window of the full agonist control, isoproterenol.

Chain of β2 adrenergic receptors in human astrocytoma cells (1321N1) (P07550 whole entry): as the sequence (P07550 whole entry, species assumed) above

For `CC(C)Oc1ncccc1[C@@H](O)CNC(C)(C)C` [Compound 03-57], the “Average pEC50 [Receptor subtype: Endogenous; Cell type: 1321N1]” value was “C (C = <7-6)”.
`CC(C)(C)NC[C@H](O)c1cccnc1C1CCCC1` [Compound 03-53] was tested, and the “Average pEC50 [Receptor subtype: Endogenous; Cell type: 1321N1]” value was “C (C = <7-6)”.

Same assay, conditions: Endogenous receptor; 1321N1 cells; read-out: Average EC50 [Receptor subtype: Endogenous; Cell type: 1321N1]

`CC(C)Oc1ncccc1[C@@H](O)CNC(C)(C)C` [Compound 03-57] and `CC(C)(C)NC[C@H](O)c1cccnc1C1CCCC1` [Compound 03-53] fall in the same range of EC50: 100 to 1000 nM for the first, 100 to 1000 nM for the second.

Same assay, conditions: Endogenous receptor; 1321N1 cells; read-out: Average pEC50 [Receptor subtype: Endogenous; Cell type: 1321N1] (converted)

First: CC(C)c1cccc([C@@H](O)CNC(C)(C)C)n1 [Compound 03-175]
Second: CC(C)(C)NC[C@H](O)c1cccc(C(C)(F)F)n1 [Compound 03-169]
The EC50 of the first is lower: less than 10 nM for the first, 100 to 1000 nM for the second.

Compared with `CC(C)(C)NC[C@H](O)c1cccc(C2CCC2)n1` [Compound 03-161], `O[C@@H](CNC1CCC1)c1cccc(C(F)(F)F)n1` [Compound 03-33] is higher in EC50: less than 10 nM for the first, 10 to 100 nM for the second.

Molecule `CC(C)(COc1ccccc1)NC[C@H](O)c1cccc(C(F)(F)F)n1` [Compound 03-184] has an EC50 of 10 to 100 nM.

Target: B3-AR (Homo sapiens (Human), UniProt P13945)
Assay: cAMP potency assay, B3-AR expressing CHO-K1 cells
Format: cell-based
Settings: read-out: Average EC50 [Receptor subtype: B3-AR, Cell type: CHO-K1]

Chain of B3-AR (P13945 whole entry, species assumed): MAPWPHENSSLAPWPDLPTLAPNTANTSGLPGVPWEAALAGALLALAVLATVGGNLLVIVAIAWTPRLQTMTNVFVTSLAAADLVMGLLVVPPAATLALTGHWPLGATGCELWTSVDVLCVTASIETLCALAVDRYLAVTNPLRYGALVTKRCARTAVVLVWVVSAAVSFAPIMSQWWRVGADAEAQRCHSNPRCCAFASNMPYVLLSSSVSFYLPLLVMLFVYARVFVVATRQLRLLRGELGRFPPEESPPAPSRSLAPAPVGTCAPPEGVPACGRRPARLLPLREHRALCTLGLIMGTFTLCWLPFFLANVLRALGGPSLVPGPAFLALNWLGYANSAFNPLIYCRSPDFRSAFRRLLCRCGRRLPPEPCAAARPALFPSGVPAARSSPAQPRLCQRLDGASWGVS

`CC(C)Oc1ncccc1[C@@H](O)CNC(C)(C)C` [Compound 03-57] and `CC(C)(C)NC[C@H](O)c1cccnc1C1CCCC1` [Compound 03-53] cannot be ordered by EC50: greater than 1000 nM for the first, greater than 1000 nM for the second.

Same assay, conditions: read-out: Average pEC50 [Receptor subtype: B3-AR, Cell type: CHO-K1] (converted)

`CC(C)c1cccc([C@@H](O)CNC(C)(C)C)n1` [Compound 03-175] and `CC(C)(C)NC[C@H](O)c1cccc(C(C)(F)F)n1` [Compound 03-169] cannot be ordered by EC50: greater than 1000 nM for the first, greater than 1000 nM for the second.

`CC(C)Oc1ncccc1[C@@H](O)CNC(C)(C)C` [Compound 03-57] and `CC(C)(C)NC[C@H](O)c1cccnc1C1CCCC1` [Compound 03-53] cannot be ordered by EC50: greater than 1000 nM for the first, greater than 1000 nM for the second.

First: CC(C)(C)NC[C@H](O)c1cccc(C2CCC2)n1 [Compound 03-161]
Second: O[C@@H](CNC1CCC1)c1cccc(C(F)(F)F)n1 [Compound 03-33]
The EC50 of the first is lower: 100 to 1000 nM for the first, greater than 1000 nM for the second.

`CC(C)(COc1ccccc1)NC[C@H](O)c1cccc(C(F)(F)F)n1` [Compound 03-184] showed an EC50 of 100 to 1000 nM.
